# Biological target: T1, AurA (Homo sapiens, UniProt O14965)
# T1 construct: purchased Carna Biosciences
# T1 sequence (O14965 1-403): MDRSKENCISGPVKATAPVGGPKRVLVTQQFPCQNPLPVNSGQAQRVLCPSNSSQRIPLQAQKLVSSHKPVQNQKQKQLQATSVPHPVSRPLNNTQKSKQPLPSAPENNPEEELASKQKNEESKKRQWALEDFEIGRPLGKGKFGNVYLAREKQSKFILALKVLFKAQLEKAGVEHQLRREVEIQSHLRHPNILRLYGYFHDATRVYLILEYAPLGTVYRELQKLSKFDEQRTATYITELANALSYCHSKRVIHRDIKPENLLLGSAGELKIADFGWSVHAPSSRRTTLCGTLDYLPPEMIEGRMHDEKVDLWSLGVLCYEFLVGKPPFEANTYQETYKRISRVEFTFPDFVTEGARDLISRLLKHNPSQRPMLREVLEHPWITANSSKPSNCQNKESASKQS
# Experiment: LabChip (Caliper) kinase assay, AurA
# Assay type: biochemical
# Conditions: for inhibition at 0.01 µM: compound at 10 nM; for inhibition at 0.01 µM / inhibition at 0.1 µM: read-out: remaining kinase activity (in %) / percentage of inhibition; for inhibition at 0.1 µM: compound at 100 nM; for IC50: ATP at Km, read-out: CI50 (the source's name)
# Procedure: The analysis of kinase activity described here was performed using LabChip (Caliper Life Sciences), specifically the Caliper LC3000 and the EZ Reader II instruments.
# The kinase assay used measures the conversion of a fluorescent peptide (substrate) to a phosphorylated product. The reaction mixture, in a microplate well, is introduced by a capillary in a chip where the non-phosphorylated substrate and the phosphorylated product are separated by […]. The intensity of the fluorescent signal over time is related to the reaction progress. The phosphorylated product migrates quicker than the non-phosphorylated substrate and the signals of the two forms of the peptide appear as differentiated peaks. The Caliper determines the peak height and calculates the ratio of product to the peak sum (P/(P+S)). This value is used to compare wells with compounds and wells with controls and thus determine the % of inhibition for the given product.
# The followings kinases were used for the enzymatic inhibition studies, between brackets the value of the Michaelis-Menten constant, Km, of the ATP (Adenosine triphosphate) for each kinase, in μM: obtained from Carna Biosciences: MAPKAPK2 (4.6), AurA (3.6), AurB (5), PKCζ (3.8), RSK1 (23.3), PRAK (5), Erk1 (33.4), PKD2 (32.1), CK1d (16.3), CHK1 (33), ABL (61.7), FYN (36), LYNa (17), CHK2 (57.8), MET (79.5), LCK (28.5), SRC (38), GSK3β (7.3), Erk2 (62.1), PKACα (1.7), AKT2 (186.1), INSR (871.8), p38a (396.5), AKT1(48), MSK1 (21.2), PKCβ2 (84.8), ROCK2 (3.3), PIM2 (4.9), AMPK (38.6), KDR (164.8), IRAK4 (196.5), SGK1 (121.8), SYK (33.5); obtained from Invitrogen: CDK2 (57.6), BTK (123), HGK (80); obtained from Upstate: MST2 (36.6), PKGα (16), PAK2 (1.9), IGF1R (320), FGFR1 (171), MARK1 (33), CAMK2δ (22.4), c-TAK1 (66), DYRK1a (18.1), CaMK4 (3.9), FLT3 (350), c-Raf (6.2), P70S6K (95).
# The compounds were dissolved in 100% DMSO and were diluted at 25 times the final concentration desired for the assay. In the case of the determination of Cl50, serial dilutions were made to reach eight concentrations and give rise to the inhibition curve. 1 μL of each concentration is transferred, in duplicate to a 384-well microplate. 12 μL of enzymatic buffer is added to each well containing purified kinase (several suppliers as indicated above), 100 mM HEPES, pH 7.5, 1 mM DTT (Calbiochem), 0.002% Brij-35 (Sigma) and also in presence of 10 mM MgCl2 as cofactor, except for INSR and IRAK4 wherein 10 mM MnCl2 is used instead of MgCl2. For the kinases CAMK26 and CAMK4, 1 mM CaCl2 and 6.7 μg/mL of calmodulin are also added. For KDR kinase, 0.05% of the CHAPSO detergent is added. For the c-Raf kinase, 10 mM MnCl2 is added. For PKCβ2 0.02 μg/mL of PS/PMA is added. For PKGα se 10 μM of cGMP (cyclic guanosine monophosphate) is added. The compound and the enzyme are left for 15 minutes preincubation and, then, the following are added to each well: 12 μL of peptide buffer/ATP containing 100 mM HEPES, pH 7.5, 1.5 μM peptide marker with fluorescein (specific for the corresponding kinase), ATP (at concentration KM), and 0.002% Brij-35 to start the reaction. Generally, the reactions are incubated for 1-1.5 h at ambient temperature to obtain an adequate conversion (15-40%) of the peptide to the phosphorylated product. The reactions were ended by the addition of 45 μL of buffer containing 0 mM EDTA. The microplates were read by the LabChip 3000 using a 12-channel LabChip. The P/(P+S) values were obtained as described above and the CI50 curves were generated using XIfit.
# Table 9a has the 0150 data obtained in pairs of compound-kinase selected from the compounds of formula (VII), (VIII), (IX), (XVI), (XVII) and (XVIII) after taking inhibition measurements at 100 nM and 10 nM. Those couples that provide >70% of inhibition at 10 nM were consider for measuring its IC50. […]
SMILES,inhibition at 0.01 µM [%],inhibition at 0.1 µM [%],IC50 [nM]
"C[C@@H]1O[C@@H](n2c3ccccc3c3c4c(c5c6ccccc6[nH]c5c32)CNC4=O)[C@H](O)[C@H](O)[C@H]1O [formula (XII), N^13-1′-β-L-rhamnosyl-k252c]",2,3,–
"C[C@@H]1O[C@@H](n2c3ccccc3c3c4c(c5c6ccccc6[nH]c5c32)C(=O)NC4=O)C[C@H](O)[C@H]1O [formula (IV), N^13-1′-β-L-olivosylarcyriaflavin]",4,19,–
"C[C@H]1O[C@@H](n2c3ccccc3c3c4c(c5c6ccccc6[nH]c5c32)C(=O)NC4=O)C[C@@H](O)[C@@H]1O [formula (VI), N^13-1′-β-D-olivosylarcyriaflavin]",3,13,–
"C[C@]12O[C@H](C[C@H](O)[C@H]1O)n1c3ccccc3c3c4c(c5c6ccccc6n2c5c31)C(=O)NC4=O [formula (VIII), N^12-5′(S)-N^13-1′-(R)-L-olivosylarcyriaflavin]",–,–,> 10
"C[C@]12O[C@H](C[C@H](O)[C@H]1O)n1c3ccccc3c3c4c(c5c6ccccc6n2c5c31)CNC4=O [formula (XVII), N^12-5′(S)-N^13-1′-(R)-L-olivosyl-k252c]",–,–,5
"C[C@@H]1O[C@@H](n2c3ccccc3c3c4c(c5c6ccccc6[nH]c5c32)C(=O)NC4=O)C[C@@H](O)[C@H]1O [formula (V), N^13-1′-β-L-digitoxosylarcyriaflavin]",4,22,–
"C[C@]12O[C@H](C[C@@H](O)[C@H]1O)n1c3ccccc3c3c4c(c5c6ccccc6n2c5c31)CNC4=O [formula (XVIII), N^12-5′(S)-N^13-1′-(R)-L-digitoxosyl-k252c]",–,–,> 10
"C[C@]12O[C@H]([C@H](O)[C@H](O)[C@H]1O)n1c3ccccc3c3c4c(c5c6ccccc6n2c5c31)C(=O)NC4=O [formula (VII), N^12-5′(S)-N^13-1′-(R)-L-rhamnosylarcyriaflavin]",–,–,> 10
"C[C@@H]1O[C@@H](n2c3ccccc3c3c4c(c5c6ccccc6[nH]c5c32)C(=O)NC4=O)[C@H](O)[C@H](O)[C@H]1O [formula (III), N^13-1′-β-L-rhamnosylarcyriaflavin]",0,5,–
"C[C@@H]1O[C@@H](n2c3ccccc3c3c4c(c5c6ccccc6[nH]c5c32)CNC4=O)C[C@@H](O)[C@H]1O [formula (XIV), N^13-1′-β-L-digitoxosyl-k252c]",1,5,–
"C[C@H]1O[C@@H](n2c3ccccc3c3c4c(c5c6ccccc6[nH]c5c32)CNC4=O)C[C@@H](O)[C@@H]1O [formula (XV), N^13-1′-β-D-olivosyl-k252c]",3,20,–
"C[C@@H]1O[C@@H](n2c3ccccc3c3c4c(c5c6ccccc6[nH]c5c32)CNC4=O)C[C@H](O)[C@H]1O [formula (XIII), N^13-1′-β-L-olivosyl-k252c]",2,24,–
"C[C@]12O[C@H](C[C@@H](O)[C@H]1O)n1c3ccccc3c3c4c(c5c6ccccc6n2c5c31)C(=O)NC4=O [formula (IX), N^12-5′(S)-N^13-1′-(R)-L-digitoxosylarcyriaflavin]",–,–,6.7

# Source: patent publication US8598132B2, “Glycosylated indolocarbazoles, method for obtaining same and uses thereof” (Universidad de Oviedo, priority 2008, dated 2013)
